# Experiments:
# Assay type in all cases: cell-based
# [1] = tested on: SW480 (G12V) cells; test: Cell viability assay (CELLTITER-GLO), SW480 cells; conditions: Homo sapiens, 72 h, 3 days at 37° C., CELLTITER-GLO luminescence, read-out: Inhibition of Cancerous Cells IC50 (μM) SW480 (G12V)
# Protocol: (§1) AsPC-1, 1358, and SW48 cells were cultured in RPMI 1640 media supplemented with 10% fetal bovine serum, streptomycin, and penicillin. Lovo and SW480 cells were cultured in DMEM media supplemented with 10% fetal bovine serum, streptomycin, and penicillin. The cell lines were plated in their respective medium supplemented with 2.5% fetal bovine serum, streptomycin, and penicillin. All cell lines were plated in white walled 96-well plates at 2,000 cells/well or 384-well plates at 500 cells/well, except Lovo, which were plated at 4,000 or 1,000 cells/well, respectively. The cells were incubated in DMSO (control) or a compound for 3 days at 37° C. under 5% CO2. A CELLTITER-GLO® reagent (100 μL) was then added to each well. After a 10 min incubation with shaking, luminescence was measured using an ENVISION® multimode plate reader.
# [2] = tested on: SW48 (wt) cells; test: Cell viability assay (CELLTITER-GLO), SW48 cells; conditions: Homo sapiens, 72 h, 3 days at 37° C., CELLTITER-GLO luminescence, read-out: Inhibition of Cancerous Cells IC50 (μM) SW48 (wt)
# Protocol: as §1
# [3] = tested on: Lovo (G13D) cells; test: Cell viability assay (CELLTITER-GLO), Lovo cells; conditions: Homo sapiens, 72 h, 3 days at 37° C., CELLTITER-GLO luminescence, read-out: Inhibition of Cancerous Cells IC50 (μM) Lovo (G13D)
# Protocol: as §1
# [4] = tested on: H358 (G12C) cells; test: Cell viability assay (CELLTITER-GLO), H358 cells; conditions: Homo sapiens, NCI-H358, 72 h, 3 days at 37° C., CELLTITER-GLO luminescence, read-out: Inhibition of Cancerous Cells IC50 (μM) H358 (G12C)
# Protocol: as §1
# [5] = tested on: AsPC-1 (G12D) cells; test: Cell viability assay (CELLTITER-GLO), AsPC-1 cells; conditions: Homo sapiens, ASPC1, 72 h, 3 days at 37° C., CELLTITER-GLO luminescence, read-out: Inhibition of Cancerous Cells IC50 (μM) AsPC-1 (G12D)
# Protocol: as §1
SMILES,IC50 [1] [µM],IC50 [2] [µM],IC50 [3] [µM],IC50 [4] [µM],IC50 [5] [µM]
"COc1cc2c(N[C@H](C)c3cccc(Br)c3)nc(C)nc2cc1OCCCCCCCN1CCN(C(=O)CNc2ccc3c(C4CCC(=O)NC4=O)nn(C)c3c2)CC1 (stereo partly drawn) [Compound D1, 3-(6-((2-(4-(7-((4-(((R)-1-(3-Bromophenyl)ethyl)amino)-6-methoxy-2-methyl-quinazolin-7-yl)oxy)heptyl)piperazin-1-yl)-2-oxoethyl)amino)-1-methyl-1H-indazol-3-yl)-piperidine-2,6-dione]",1.4,1.8,1.1,2.9,–
"COc1cc2c(N[C@H](C)c3cccc(Br)c3)nc(C)nc2cc1OCCCCCCCCCCCN1CCN(C(=O)CNc2ccc3c(C4CCC(=O)NC4=O)nn(C)c3c2)CC1 (stereo partly drawn) [Compound D3, 3-(6-((2-(4-(11-((4-(((R)-1-(3-Bromophenyl)ethyl)amino)-6-methoxy-2-methyl-quinazolin-7-yl)oxy)undecyl)piperazin-1-yl)-2-oxoethyl)amino)-1-methyl-1H-indazol-3-yl)-piperidine-2,6-dione]",0.61,0.48,0.64,1.4,–
"COc1cc2c(N[C@H](C)c3cccc(Br)c3)nc(C)nc2cc1OCCCCCN1CCN(C(=O)CNc2ccc(C3CCC(=O)NC3=O)cc2)CC1 (stereo partly drawn) [Compound B8, 3-(4-((2-(4-(5-((4-(((R)-1-(3-Bromophenyl)ethyl)amino)-6-methoxy-2-methyl-quinazolin-7-yl)oxy)pentyl)piperazin-1-yl)-2-oxoethyl)amino)phenyl)piperidine-2,6-dione]",1.1,1.1,1.3,1.7,2.8
"COc1cc2c(N[C@@H](C)c3cccc(Br)c3)nc(C)nc2cc1OCCCCCCCCCN1CCN(C(=O)CNc2cccc3c(N4CCC(=O)NC4=O)nn(C)c23)CC1 [Compound D9, (S)-1-(7-((2-(4-(9-((4-((1-(3-Bromophenyl)ethyl)amino)-6-methoxy-2-methyl-quinazolin-7-yl)oxy)nonyl)piperazin-1-yl)-2-oxoethyl)amino)-1-methyl-1H-indazol-3-yl)dihydropyrimidine-2,4(1H,3H)-dione]",1.1,2.5,1.9,4.5,4.7
"COc1cc2c(N[C@H](C)c3cccc(Br)c3)nc(C)nc2cc1OCCCCCCCCCN1CCN(C(=O)CNc2ccc(C3CCC(=O)NC3=O)cc2)CC1 (stereo partly drawn) [Compound B5, 3-(4-((2-(4-(9-((4-(((R)-1-(3-Bromophenyl)ethyl)amino)-6-methoxy-2-methyl-quinazolin-7-yl)oxy)nonyl)piperazin-1-yl)-2-oxoethyl)amino)phenyl)piperidine-2,6-dione]",0.45,1.2,0.19,2,–
"COc1cc2c(N[C@H](C)c3cccc(Br)c3)nc(C)nc2cc1OCCCCCCCCCCCN1CCN(C(=O)CNc2cccc3c(C4CCC(=O)NC4=O)nn(C)c23)CC1 (stereo partly drawn) [Compound D6, 3-(7-((2-(4-(11-((4-(((R)-1-(3-Bromophenyl)ethyl)amino)-6-methoxy-2-methylquinazolin-7-yl)oxy)undecyl)piperazin-1-yl)-2-oxoethyl)amino)-1-methyl-1H-indazol-3-yl)piperidine-2,6-dione]",1.7,2.4,0.76,6.4,–
"COc1cc2c(N[C@H](C)c3cccc(Br)c3)nc(C)nc2cc1OCCCCCCCN1CCN(C(=O)CNc2ccc(C3CCC(=O)NC3=O)cc2)CC1 (stereo partly drawn) [Compound B4, 3-(4-((2-(4-(7-((4-(((R)-1-(3-bromophenyl)ethyl)amino)-6-methoxy-2-methylquinazolin-7-yl)oxy)heptyl)piperazin-1-yl)-2-oxoethyl)amino)phenyl)piperidine-2,6-dione]",0.49,1.1,0.23,0.93,–
"COc1cc2c(N[C@H](C)c3cccc(Br)c3)nc(C)nc2cc1OCCCCCCCCCCCN1CCN(C(=O)CNc2ccc(C3CCC(=O)NC3=O)cc2)CC1 (stereo partly drawn) [Compound B6, 3-(4-((2-(4-(11-((4-(((R)-1-(3-bromophenyl)ethyl)amino)-6-methoxy-2-methyl-quinazolin-7-yl)oxy)undecyl)piperazin-1-yl)-2-oxoethyl)amino)phenyl)piperidine-2,6-dione]",0.3,3.7,0.48,2.1,–
"COc1cc2c(N[C@H](C)c3cccc(Br)c3)nc(C)nc2cc1OCCCCCCCN1CCN(C(=O)CNc2cccc(C3CCC(=O)NC3=O)c2)CC1 (stereo partly drawn) [Compound B1, 3-(3-((2-(4-(7-((4-(((R)-1-(3-bromophenyl)ethyl)amino)-6-methoxy-2-methylquinazolin-7-yl)oxy)heptyl)piperazin-1-yl)-2-oxoethyl)amino)phenyl)piperidine-2,6-dione]",0.66,1.1,0.34,1.1,–
"COc1cc2c(N[C@H](C)c3cccc(Br)c3)nc(C)nc2cc1OCCCCCCCCCCCN1CCN(C(=O)CNc2cccc(C3CCC(=O)NC3=O)c2)CC1 (stereo partly drawn) [Compound B3, 3-(3-((2-(4-(11-((4-(((R)-1-(3-Bromophenyl)ethyl)amino)-6-methoxy-2-methyl-quinazolin-7-yl)oxy)undecyl)piperazin-1-yl)-2-oxoethyl)amino)phenyl)piperidine-2,6-dione]",0.48,1.7,0.55,2.9,–
"COc1cc2c(N[C@H](C)c3cccc(Br)c3)nc(C)nc2cc1OCCCCCCCCCN1CCN(C(=O)CNc2cccc3c(C4CCC(=O)NC4=O)nn(C)c23)CC1 (stereo partly drawn) [Compound D5, 3-(7-((2-(4-(9-((4-(((R)-1-(3-Bromophenyl)ethyl)amino)-6-methoxy-2-methyl-quinazolin-7-yl)oxy)nonyl)piperazin-1-yl)-2-oxoethyl)amino)-1-methyl-1H-indazol-3-yl)-piperidine-2,6-dione]",0.94,1.5,0.42,> 10,–
"COc1cc2c(N[C@H](C)c3cccc(Br)c3)nc(C)nc2cc1OCCCCCCCCCN1CCN(C(=O)CNc2ccc3c(C4CCC(=O)NC4=O)nn(C)c3c2)CC1 (stereo partly drawn) [Compound D2, 3-(6-((2-(4-(9-((4-(((R)-1-(3-bromophenyl)ethyl)amino)-6-methoxy-2-methylquinazolin-7-yl)oxy)nonyl)piperazin-1-yl)-2-oxoethyl)amino)-1-methyl-1H-indazol-3-yl)piperidine-2,6-dione]",0.97,1.2,0.55,1.7,–
"COc1cc2c(N[C@H](C)c3cccc(Br)c3)nc(C)nc2cc1OCCCCCCCN1CCN(C(=O)CNc2cccc3c(C4CCC(=O)NC4=O)nn(C)c23)CC1 (stereo partly drawn) [Compound D4, 3-(7-((2-(4-(7-((4-(((R)-1-(3-Bromophenyl)ethyl)amino)-6-methoxy-2-methyl-quinazolin-7-yl)oxy)heptyl)piperazin-1-yl)-2-oxoethyl)amino)-1-methyl-1H-indazol-3-yl)-piperidine-2,6-dione]",0.65,0.85,0.37,1.6,–
